# According to US20250388544A1, “HETEROAROMATIC INHIBITORS OF ASTACIN PROTEINASES” (VIVORYON THERAPEUTICS N.V., priority 2019, published 2025):
# Experiments:
# Type in all cases: biochemical
# hADAM 17 = biological target: T1, hADAM 17 (Homo sapiens, UniProt P78536); experiment: Residual enzyme activity of other metalloproteases; details: read-out: Residual enzyme activity ADAM17; for remaining activity at 10 µM: 10 μM inhibitor; for remaining activity at 200 µM: 200 μM inhibitor
# T1 construct: purchased R&D systems
# Experimental: (§1) The determination of enzymatic activity was based on the cleavage of internally quenched peptide substrates. A typical assay of 250 μl total volume measured in black 96 well plates consisted of 100 μl buffer, 50 μl enzyme at a final concentration of 5e-8 M to 2e-10 M, 50 μl substrate (0.15 to 80 μM, in buffer, 0.5% DMSO) and 50 μl inhibitor solution (in buffer, 1% DMSO). In case of 125 μl assay volume (black 96 half area well plates) all volumes were cut in half. Enzymatic activity of ADAMs was measured in 384 well plates with 60 μl total assay volume consisting of 20 μl inhibitor, 20 μl buffer, 10 μl enzyme and 10 μl substrate.
# hADAM 10 = biological target: T2, hADAM 10 (Homo sapiens, UniProt O14672); experiment: Residual enzyme activity of other metalloproteases; details: read-out: Residual enzyme activity ADAM10; for remaining activity at 10 µM: 10 μM inhibitor; for remaining activity at 200 µM: 200 μM inhibitor
# T2 construct: purchased R&D systems
# T2 sequence (O14672 214-748): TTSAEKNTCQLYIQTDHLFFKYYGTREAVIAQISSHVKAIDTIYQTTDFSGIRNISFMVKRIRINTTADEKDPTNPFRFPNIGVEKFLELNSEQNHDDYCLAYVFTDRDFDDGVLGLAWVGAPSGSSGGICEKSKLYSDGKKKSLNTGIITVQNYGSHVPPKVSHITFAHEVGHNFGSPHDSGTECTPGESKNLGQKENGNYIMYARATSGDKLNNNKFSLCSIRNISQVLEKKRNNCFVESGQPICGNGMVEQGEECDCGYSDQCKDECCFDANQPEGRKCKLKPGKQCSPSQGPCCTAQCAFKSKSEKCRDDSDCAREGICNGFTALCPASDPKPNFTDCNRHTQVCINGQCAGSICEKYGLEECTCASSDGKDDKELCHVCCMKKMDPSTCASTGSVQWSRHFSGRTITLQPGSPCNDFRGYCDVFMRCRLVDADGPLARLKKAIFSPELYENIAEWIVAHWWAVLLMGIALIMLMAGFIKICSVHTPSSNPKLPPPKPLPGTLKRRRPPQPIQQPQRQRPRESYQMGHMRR
# Experimental: as §1
# hMMP 9 = biological target: T3, hMMP 9 (Homo sapiens, UniProt P14780); experiment: Residual enzyme activity of other metalloproteases; details: read-out: Residual enzyme activity MMP9; for remaining activity at 10 µM: 10 μM inhibitor; for remaining activity at 200 µM: 200 μM inhibitor
# T3 construct: purchased R&D systems
# Experimental: as §1
# MMPs were activated prior to measurement by APMA (p-aminophenylmercuric acetate) treatment according to manufacturer's instructions (R&D systems).
# hMeprin β = biological target: T4, hMeprin β (Homo sapiens, UniProt Q16820); experiment: Enzymatic assay, quenched peptide substrate cleavage, method B; details: geometric mean (geometric SD factor in parentheses); for Ki: Morrison's equation, read-out: Meprin beta Ki(app); for IC50: read-out: Meprin beta IC50
# T4 sequence (Q16820 62-701): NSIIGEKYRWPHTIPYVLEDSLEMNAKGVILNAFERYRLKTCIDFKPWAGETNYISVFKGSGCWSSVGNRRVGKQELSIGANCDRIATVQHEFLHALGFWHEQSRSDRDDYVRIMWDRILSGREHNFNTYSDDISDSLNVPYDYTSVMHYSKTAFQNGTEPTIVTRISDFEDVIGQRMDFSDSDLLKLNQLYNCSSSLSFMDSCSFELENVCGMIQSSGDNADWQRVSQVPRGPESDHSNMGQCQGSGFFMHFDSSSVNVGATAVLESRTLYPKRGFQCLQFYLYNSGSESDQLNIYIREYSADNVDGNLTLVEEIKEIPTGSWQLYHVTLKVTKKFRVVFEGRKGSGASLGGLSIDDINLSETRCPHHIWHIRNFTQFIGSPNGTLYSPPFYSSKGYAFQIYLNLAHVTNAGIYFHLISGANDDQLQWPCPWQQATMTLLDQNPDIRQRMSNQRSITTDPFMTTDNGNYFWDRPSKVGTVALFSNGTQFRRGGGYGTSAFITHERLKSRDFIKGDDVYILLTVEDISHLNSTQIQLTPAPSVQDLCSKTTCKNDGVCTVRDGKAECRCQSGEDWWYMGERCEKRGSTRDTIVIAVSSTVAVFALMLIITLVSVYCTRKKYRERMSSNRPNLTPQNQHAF
# In short: (§2)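 Cleavage of internally quenched peptides was read at 340/420 nm and 30° C., with enzyme at 5e-8 to 2e-10 M and substrate at 0.15–80 μM. Inhibitor solutions contained 1% DMSO and substrate 0.5% DMSO. Method B gave Ki(app) values via Morrison's equation, with kinetics measured in at least duplicate on separate days.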
# hMeprin α = biological target: T5, hMeprin α (Homo sapiens, UniProt Q16819); experiment: as above; details: geometric mean (geometric SD factor in parentheses); for Ki: Morrison's equation, read-out: Meprin alpha Ki(app); for IC50: read-out: Meprin alpha IC50
# T5 sequence (Q16819 66-746): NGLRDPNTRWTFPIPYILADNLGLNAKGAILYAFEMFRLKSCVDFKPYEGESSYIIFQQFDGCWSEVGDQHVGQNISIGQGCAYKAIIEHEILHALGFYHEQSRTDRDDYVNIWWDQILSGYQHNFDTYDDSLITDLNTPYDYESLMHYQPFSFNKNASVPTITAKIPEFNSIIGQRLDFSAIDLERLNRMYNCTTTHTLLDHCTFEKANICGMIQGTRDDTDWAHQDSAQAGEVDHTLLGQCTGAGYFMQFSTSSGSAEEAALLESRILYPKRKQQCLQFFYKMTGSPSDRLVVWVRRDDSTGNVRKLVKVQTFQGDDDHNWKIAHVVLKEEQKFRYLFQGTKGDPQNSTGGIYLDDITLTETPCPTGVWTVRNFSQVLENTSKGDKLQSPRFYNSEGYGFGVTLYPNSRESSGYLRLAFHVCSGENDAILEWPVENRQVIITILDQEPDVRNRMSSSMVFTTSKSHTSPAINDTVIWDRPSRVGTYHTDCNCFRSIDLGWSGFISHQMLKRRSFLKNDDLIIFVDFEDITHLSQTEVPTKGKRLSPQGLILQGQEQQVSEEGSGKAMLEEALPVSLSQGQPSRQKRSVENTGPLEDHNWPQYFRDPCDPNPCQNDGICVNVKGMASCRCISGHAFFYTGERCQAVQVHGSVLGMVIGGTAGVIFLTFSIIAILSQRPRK
# In short: as §2
# T1 sequence (P78536 215-824): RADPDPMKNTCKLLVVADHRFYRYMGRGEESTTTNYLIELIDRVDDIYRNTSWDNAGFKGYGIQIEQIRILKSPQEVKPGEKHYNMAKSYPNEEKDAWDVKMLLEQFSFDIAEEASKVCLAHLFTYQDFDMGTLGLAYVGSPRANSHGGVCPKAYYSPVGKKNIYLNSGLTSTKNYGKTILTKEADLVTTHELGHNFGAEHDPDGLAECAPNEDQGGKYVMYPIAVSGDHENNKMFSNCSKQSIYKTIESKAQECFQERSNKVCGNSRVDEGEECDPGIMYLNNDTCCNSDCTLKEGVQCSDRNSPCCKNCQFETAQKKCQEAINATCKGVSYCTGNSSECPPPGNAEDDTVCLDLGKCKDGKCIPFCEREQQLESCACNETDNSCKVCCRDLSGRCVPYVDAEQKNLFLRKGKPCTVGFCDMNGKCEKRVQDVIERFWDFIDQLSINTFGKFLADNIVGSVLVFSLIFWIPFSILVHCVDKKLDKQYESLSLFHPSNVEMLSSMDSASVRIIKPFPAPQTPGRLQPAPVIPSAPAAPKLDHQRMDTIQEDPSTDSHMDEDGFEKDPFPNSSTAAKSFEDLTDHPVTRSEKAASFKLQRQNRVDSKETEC
# T3 sequence (P14780 107-707 limits assumed): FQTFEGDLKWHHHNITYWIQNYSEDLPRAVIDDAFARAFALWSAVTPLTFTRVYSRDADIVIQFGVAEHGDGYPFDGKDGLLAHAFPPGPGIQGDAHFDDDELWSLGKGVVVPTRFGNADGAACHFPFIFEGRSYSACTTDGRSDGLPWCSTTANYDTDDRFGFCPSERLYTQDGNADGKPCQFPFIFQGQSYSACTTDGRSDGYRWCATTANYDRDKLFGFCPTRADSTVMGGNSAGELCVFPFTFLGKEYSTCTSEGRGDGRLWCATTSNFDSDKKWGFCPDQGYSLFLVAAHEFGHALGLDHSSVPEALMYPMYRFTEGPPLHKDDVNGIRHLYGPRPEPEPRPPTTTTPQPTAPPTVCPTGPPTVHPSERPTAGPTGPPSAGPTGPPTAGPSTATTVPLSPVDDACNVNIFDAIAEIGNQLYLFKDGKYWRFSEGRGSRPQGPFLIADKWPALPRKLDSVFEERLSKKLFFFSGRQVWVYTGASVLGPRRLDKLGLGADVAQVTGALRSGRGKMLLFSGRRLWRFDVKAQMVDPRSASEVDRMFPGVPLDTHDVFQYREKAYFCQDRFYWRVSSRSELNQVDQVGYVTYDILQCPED
Structure (SMILES),remaining activity at 10 µM (hADAM 17) [%],remaining activity at 200 µM (hADAM 17) [%],remaining activity at 10 µM (hADAM 10) [%],remaining activity at 200 µM (hADAM 10) [%],remaining activity at 10 µM (hMMP 9) [%],remaining activity at 200 µM (hMMP 9) [%],Ki (hMeprin β) [nM],IC50 (hMeprin β) [nM],Ki (hMeprin α) [nM],IC50 (hMeprin α) [nM]
"COc1cccc(-c2n[nH]c(-c3ccccc3)c2CC(=O)NO)c1 [Example 47, 2-[3-(3-Methoxyphenyl)-5-phenyl-1H-pyrazol-4-yl]ethanehydroxamic acid]",52,6,68,8,80,33,116,123,1,1
"O=C(Cc1c(-c2ccccc2)nn(Cc2ccc3c(c2)OCO3)c1-c1ccccc1)NO [Example 43, 2-[1-(1,3-Benzodioxol-5-ylmethyl)-3,5-diphenyl-1H-pyrazol-4-yl]ethanehydroxamic acid]",21,4,69,39,74,60,305,310,0.59,0.75
"COc1ccc(-c2n[nH]c(-c3ccccc3)c2CC(=O)NO)cc1OC [Example 49, 2-[3-(3,4-Dimethoxyphenyl)-5-phenyl-1H-pyrazol-4-yl]ethanehydroxamic acid]",65,6,87,13,90,44,83,84,0.71,0.79
"O=C(Cc1c(-c2ccccc2)nn(Cc2ccc(Cl)c(O)c2F)c1-c1ccccc1)NO [Example 42, 2-[1-(4-Chloro-2-fluoro-3-hydroxybenzyl)-3,5-diphenyl-1H-pyrazol-4-yl]ethanehydroxamic acid]",72,14,85,34,70,14,9,10,0.08,0.16
"O=C(Cn1c(-c2ccccc2)ccc1-c1ccccc1)NO [Example 9, 2-(2,5-Diphenylpyrrol-1-yl)ethanehydroxamic acid]",82,25,83,29,92,1,,,,
"O=C(CCc1c(-c2ccccc2)noc1-c1ccccc1)NO [Example 4, 3-(3,5-Diphenylisoxazol-4-yl)propanehydroxamic acid]",75,24,75,21,89,39,,,,
"O=C(CCc1c(-c2ccccc2)n[nH]c1-c1ccccc1)NO [Example 3, 3-(3,5-Diphenyl-1H-pyrazol-4-yl)propanehydroxamic acid]",76,27,66,12,93,65,9350,9660,78,80
"O=C(Cn1c(-c2ccccc2)nnc1-c1ccccc1)NO [Example 7, 2-(3,5-Diphenyl-1,2,4-triazol-4-yl)ethanehydroxamic acid]",90,56,89,83,99,54,,,,
"O=C(Cc1c(-c2cccc(C(=O)O)c2)n[nH]c1-c1ccc(Cl)c(O)c1F)NO [Example 63, 3-[5-(4-Chloro-2-fluoro-3-hydroxy-phenyl)-4-[2-(hydroxyamino)-2-oxo-ethyl]-1H-pyrazol-3-yl]benzoic acid]",99,91,90,74,94,71,4,4,5,5
"O=C(Cc1c(-c2ccc3c(c2)OCO3)n[nH]c1-c1ccccc1)NO [Example 50, 2-[3-(1,3-Benzodioxol-5-yl)-5-phenyl-1H-pyrazol-4-yl]ethanehydroxamic acid]",51,5,59,5,72,16,109,118,1,1
"O=C(Cc1c(-c2ccccc2)n[nH]c1-c1ccccc1)NO [Example 1, 2-(3,5-Diphenyl-1H-pyrazol-4-yl)ethanehydroxamic acid]",61,7,73,23,81,27,,119,,1
"O=C(Cn1c(-c2ccccc2)cc2ccccc21)NO [Example 25, 2-(2-Phenylindol-1-yl)ethanehydroxamic acid]",88,56,89,68,90,53,,,,
